SMILES strings stand for the structures.

This experiment has as its target T1, human PAD4 (Homo sapiens, UniProt Q9UM07).
T1 construct: human PAD4 (NM_012387), A2P663, was PCR amplified; His-SUMO (N, cleaved yes); made in house; host or cells: E. coli BL21(DE3)
The experiment can be described thus: In vitro PAD4 BAEE biochemical assay. To be noted: human PAD4, BAEE substrate; 5 nM PAD4, 2 mM calcium chloride, 3 mM BAEE; geometric mean of multiple experiments. In outline:
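Ammonia generated from BAEE serves as the readout, measured by o-phthalaldehyde after EDTA termination. Final conditions: 5 nM human PAD4 (SUMO tag cleaved), 2 mM CaCl2, 3 mM BAEE, pH 7.6 MOPS buffer, 25 °C for 2 h following a 30-min compound preincubation.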

T1 sequence (Q9UM07 2-663): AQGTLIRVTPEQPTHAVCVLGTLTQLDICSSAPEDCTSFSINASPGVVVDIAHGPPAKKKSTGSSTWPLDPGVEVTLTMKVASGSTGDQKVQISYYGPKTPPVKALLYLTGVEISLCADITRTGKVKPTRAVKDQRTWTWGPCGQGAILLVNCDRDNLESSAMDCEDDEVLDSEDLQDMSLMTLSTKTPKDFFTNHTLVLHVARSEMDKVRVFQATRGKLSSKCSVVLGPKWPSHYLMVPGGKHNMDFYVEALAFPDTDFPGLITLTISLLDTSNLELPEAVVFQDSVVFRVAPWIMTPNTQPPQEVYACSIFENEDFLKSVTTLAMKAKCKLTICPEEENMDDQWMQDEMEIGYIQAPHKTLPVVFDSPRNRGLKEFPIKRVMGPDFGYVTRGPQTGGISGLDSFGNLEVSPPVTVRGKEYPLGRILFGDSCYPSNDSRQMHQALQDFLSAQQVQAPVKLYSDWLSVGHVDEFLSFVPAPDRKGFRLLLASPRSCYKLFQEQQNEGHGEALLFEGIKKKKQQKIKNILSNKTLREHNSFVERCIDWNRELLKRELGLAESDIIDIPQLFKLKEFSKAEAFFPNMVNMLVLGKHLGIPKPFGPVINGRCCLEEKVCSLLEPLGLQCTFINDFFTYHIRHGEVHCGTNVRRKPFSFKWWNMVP

A word on the IC50: it is the concentration needed to halve the response being measured. As to `COc1cc(C(=O)N2[C@H]3CC[C@@H]2[C@H](N)C3)cc2nc(-c3cc4ccc([C@@H](C)NC(=O)C5(COC(F)(F)F)CC5)nc4n3CC3CC3)c(C)n12` [Example 138, ~{N}-[(1~{R})-1-[2-[7-[(1~{R},2~{R},4~{S})-2-amino-7-azabicyclo[2.2.1]heptane-7-carbonyl]-5-methoxy-3-methylimidazo [1,2-a]pyridin-2-yl]-1-(cyclopropylmethyl)pyrrolo [2,3-b]pyridin-6-yl]ethyl]-1-(trifluoromethoxymethyl) cyclopropane-1-carboxamide], the IC50 came to 328 nM.

For the compound `COc1cc(C(=O)N2CCC[C@@H](N)C2)cc2nc(-c3cc4ccc([C@@H](C)NC(=O)C56CC(C#N)(C5)C6)nc4n3CC3CC3)c(C3CC3)n12` [Example 139, ~{N}-[(1~{R})-1-[2-[7-[(3~{R})-3-aminopiperidine-1-carbonyl]-3-cyclopropyl-5-methoxyimidazo [1,2-a]pyridin-2-yl]-1-(cyclopropylmethyl)pyrrolo [2,3-b]pyridin-6-yl]ethyl]-3-cyanobicyclo[1.1.1]pentane-1-carboxamide], the IC50 came out at 208 nM.

Consider `COc1cc(C(=O)N2[C@H]3CC[C@@H]2[C@H](N)C3)cc2nc(-c3cc4ccc([C@@H](C)NC(=O)C56CC(C#N)(C5)C6)nc4n3CC3CC3)c(C3CC3)n12` [Example 140, ~{N}-[(1~{R})-1-[2-[7-[(1~{R},2~{R},4~{S})-2-amino-7-azabicyclo[2.2.1]heptane-7-carbonyl]-3-cyclopropyl-5-methoxyimidazo[1,2-a]pyridin-2-yl]-1-(cyclopropylmethyl)pyrrolo[2,3-b]pyridin-6-yl]ethyl]-3-cyanobicyclo[1.1.1]pentane-1-carboxamide], for which the IC50 was found to be 118 nM.

In the case of `COc1cc(C(=O)N2CCC[C@@H](N)C2)cc2nc(-c3cc4ccc([C@@H](C)NC(=O)c5ccccc5)nc4n3CC3CC3)c(C3CC3)n12` [Example 141, ~{N}-[(1~{R})-1-[2-[7-[(3~{R})-3-aminopiperidine-1-carbonyl]-3-cyclopropyl-5-methoxyimidazo [1,2-a]pyridin-2-yl]-1-(cyclopropylmethyl)pyrrolo [2,3-b]pyridin-6-yl]ethyl] benzamide], the IC50 came to 187 nM.

Consider `COc1cc(C(=O)N2[C@H]3CC[C@@H]2[C@H](N)C3)cc2nc(-c3cc4ccc([C@@H](C)NC(=O)c5ccccc5)nc4n3CC3CC3)c(C3CC3)n12` [Example 142, ~{N}-[(1~{R})-1-[2-[7-[(1~{R},2~{R},4~{S})-2-amino-7-azabicyclo[2.2.1]heptane-7-carbonyl]-3-cyclopropyl-5-methoxyimidazo[1,2-a]pyridin-2-yl]-1-(cyclopropylmethyl)pyrrolo [2,3-b]pyridin-6-yl]ethyl] benzamide], for which the IC50 is 121 nM.

As for `COc1cc(C(=O)N2CCC[C@@H](N)C2)cc2nc(-c3cc4ccc([C@@H](C)NC(=O)C(C)(C)C)nc4n3CC3CC3)c(C3CC3)n12` [Example 143, ~{N}-[(1~{R})-1-[2-[7-[(3~{R})-3-aminopiperidine-1-carbonyl]-3-cyclopropyl-5-methoxyimidazo [1,2-a]pyridin-2-yl]-1-(cyclopropylmethyl)pyrrolo [2,3-b]pyridin-6-yl]ethyl]-2,2-dimethylpropanamide], the IC50 stood at 139 nM.

As to `COc1cc(C(=O)N2[C@H]3CC[C@@H]2[C@H](N)C3)cc2nc(-c3cc4ccc([C@@H](C)NC(=O)C56CC(F)(C5)C6)nc4n3CC3CC3)c(C3CC3)n12` [Example 144, ~{N}-[(1~{R})-1-[2-[7-[(1~{R},2~{R},4~{S})-2-amino-7-azabicyclo[2.2.1]heptane-7-carbonyl]-3-cyclopropyl-5-methoxyimidazo[1,2-a]pyridin-2-yl]-1-(cyclopropylmethyl)pyrrolo [2,3-b]pyridin-6-yl]ethyl]-3-fluorobicyclo[1.1.1]pentane-1-carboxamide], the 50% inhibitory concentration (IC50) turned out to be 130 nM.

Take `COc1cc(C(=O)N2CCC[C@@H](N)C2)cc2nc(-c3cc4ccc([C@@H](C)NC(=O)C56CC(F)(C5)C6)nc4n3CC3CC3)c(C3CC3)n12` [Example 145, ~{N}-[(1~{R})-1-[2-[7-[(3~{R})-3-aminopiperidine-1-carbonyl]-3-cyclopropyl-5-methoxyimidazo [1,2-a]pyridin-2-yl]-1-(cyclopropylmethyl)pyrrolo [2,3-b]pyridin-6-yl]ethyl]-3-fluorobicyclo[1.1.1]pentane-1-carboxamide]: the IC50 was determined as 215 nM.

As for `COc1cc(C(=O)N2CCC[C@@H](N)C2)cc2nc(-c3cc4ccc([C@@H](C)NC(=O)N5CC(O)C5)nc4n3CC3CC3)c(C3CC3)n12` [Example 146, ~{N}-[(1~{R})-1-[2-[7-[(3~{R})-3-aminopiperidine-1-carbonyl]-3-cyclopropyl-5-methoxyimidazo [1,2-a]pyridin-2-yl]-1-(cyclopropylmethyl)pyrrolo [2,3-b]pyridin-6-yl]ethyl]-3-hydroxyazetidine-1-carboxamide], the IC50 was found to be 160 nM.

On to `COc1cc(C(=O)N2[C@H]3CC[C@@H]2[C@H](N)C3)cc2nc(-c3cc4ccc([C@@H](C)NC(=O)C56CC(c7ccccc7)(C5)C6)nc4n3CC3CC3)c(C)n12` [Example 147, ~{N}-[(1~{R})-1-[2-[7-[(1~{R},2~{R},4~{S})-2-amino-7-azabicyclo[2.2.1]heptane-7-carbonyl]-5-methoxy-3-methylimidazo [1,2-a]pyridin-2-yl]-1-(cyclopropylmethyl)pyrrolo [2,3-b]pyridin-6-yl]ethyl]-3-phenylbicyclo[1.1.1]pentane-1-carboxamide], for which the IC50 was determined as 403 nM.

Regarding `COc1cc(C(=O)N2[C@H]3CC[C@@H]2[C@H](N)C3)cc2nc(-c3cc4ccc([C@@H](C)NC(=O)CCN5C(=O)NC(C)(C)C5=O)nc4n3CC3CC3)c(C)n12` [Example 148, ~{N}-[(1~{R})-1-[2-[7-[(1~{R},2~{R},4~{S})-2-amino-7-azabicyclo[2.2.1]heptane-7-carbonyl]-5-methoxy-3-methylimidazo [1,2-a]pyridin-2-yl]-1-(cyclopropylmethyl)pyrrolo [2,3-b]pyridin-6-yl]ethyl]-3-(4,4-dimethyl-2,5-dioxoimidazolidin-1-yl)propenamide], the IC50 was 56.2 nM.

Regarding `COc1cc(C(=O)N2[C@H]3CC[C@@H]2[C@H](N)C3)cc2nc(-c3cc4ccc([C@@H](C)NC(=O)C5CN(C(C)=O)C5)nc4n3CC3CC3)c(C)n12` [Example 149, 1-acetyl-~{N}-[(1~{R})-1-[2-[7-[(1~{R},2~{R},4~{S})-2-amino-7-azabicyclo [2.2.1]heptane-7-carbonyl]-5-methoxy-3-methylimidazo [1,2-a]pyridin-2-yl]-1-(cyclopropylmethyl)pyrrolo [2,3-b]pyridin-6-yl]ethyl] azetidine-3-carboxamide], the IC50 was 77 nM.

Regarding `COc1cc(C(=O)N2[C@H]3CC[C@@H]2[C@H](N)C3)cc2nc(-c3cc4ccc([C@@H](C)NC(=O)C5CCOCC5)nc4n3CC3CC3)c(C)n12` [Example 150, ~{N}-[(1~{R})-1-[2-[7-[(1~{R},2~{R},4~{S})-2-amino-7-azabicyclo[2.2.1]heptane-7-carbonyl]-5-methoxy-3-methylimidazo [1,2-a]pyridin-2-yl]-1-(cyclopropylmethyl)pyrrolo [2,3-b]pyridin-6-yl]ethyl] oxane-4-carboxamide], the IC50 was found to be 41 nM.

Values taken from patent US12240862B2, “Inhibitors of peptidylarginine deiminases” (Gilead Sciences, Inc., priority 2020, dated 2025).
